system: LPS-induced IL-6 release level from THP-1 cells; test: Test of IL-6 release from THP-1 cells (LPS-induced, IL-6 in supernatant detected by CBA); type: cell-based; conditions: Homo sapiens, THP-1, 24 h, read-out: Inhibition rate @ 10 uM
Experimental: Test of IL-6 Release from THP-1 Cells
The inhibitory effect of the compound on LPS-induced IL-6 release level from THP-1 cells was evaluated by measuring the level of IL-6 in the cell culture supernatant.
4 ul was taken from each above solution and added to lml of culture solution to make 120 uM, 40 uM, 12 uM, 4 uM. 50 ul per well was taken and added to wells with cells to give final concentrations of 30 uM, 10 uM, 3 uM, and 1 uM, respectively. Dexamethasone was added as a positive drug into an individual cell well with a final concentration of 100 nM. • c) Cell stimulation
The LPS 1 mg/ml solution was diluted to 800 ng/ml with the culture solution and added to the cell culture wells at 50 ul/well. • d) Cell incubation and detection
The cell culture plate was placed in a 37° C. incubator, and the supernatant was collected after culturing for 24 hours. The level of IL-6 in the supernatant was detected by CBA.

Row | SMILES | inhibition at 10 µM
1 | C=C1CCC2[C@]3(C)CO[C@@H](C4CCCC4)O[C@@H]3CC[C@@]2(C)[C@@H]1CCOc1ccncn1 (stereo partly drawn) [Compound 312, 4-(2-((3R,4aR,6aS,7R,10bR)-3-cyclopentyl-6a,10b-dimethyl-8-dihydromethylenedecahydro-1H-naphtho[2,1-d][1,3]dioxin-7-yl)ethoxy)pyrimidine] | < 30%
2 | C=C1CCC2[C@]3(C)CO[C@@H](C4CCCC4)O[C@@H]3CC[C@@]2(C)[C@@H]1CCOC1CN(C(C)C)C1 (stereo partly drawn) [Compound 313, 3-(2-((3R,4aR,6aS,7R,10bR)-3-cyclopentyl-6a,10b-dimethyl-8-dihydromethylenedecahydro-1H-naphtho[2,1-d][1,3]dioxin-7-yl)ethoxy)-1-isopropyl azetidine] | 30 to 60%

same assay, conditions: Homo sapiens; inflammatory factor IL-6 detected by CBA; compound 10 uM; LPS-stimulated THP-1 cells, supernatant after 24 hours; read-out: Inhibition rate @ 10 uM

Row | SMILES | inhibition at 10 µM
3 | C=C1CCC2[C@]3(C)CO[C@@H](C4CCCC4)O[C@@H]3CC[C@@]2(C)[C@@H]1CCN1CCC(CO)CC1 (stereo partly drawn) [Compound 002, (1-(2-((3R,4aR,6aS,7R,10bR)-3-cyclopentyl-6a,10b-dimethyl-8-methylene-decahydro-1H-naphtho[2,1-d][1,3]dioxin-7-yl)ethyl)piperidin-4-yl)methanol] | < 30%
4 | C=C1CCC2[C@]3(C)CO[C@@H](C4CCCC4)O[C@@H]3CC[C@@]2(C)[C@@H]1CCN1CCC(OC)C1 (some centres unmarked) [Compound 116] | 30 to 60%
5 | C=C1CCC2[C@]3(C)CO[C@@H](C4CCCC4)O[C@@H]3CC[C@@]2(C)[C@@H]1CCN1CCOCC1 (stereo partly drawn) [Compound 123, 4-(2-((3R,4aR,6aS,7R,10bR)-3-cyclopentyl-6a,10b-dimethyl-8-methylenedecahydro-1H-naphtho[2,1-d][1,3]dioxin-7-yl)ethyl)morpholine] | < 30%
6 | C=C1CCC2[C@]3(C)CO[C@@H](c4ccc(F)c(F)c4)O[C@@H]3CC[C@@]2(C)[C@@H]1CCN1CCC(CO)CC1 (stereo partly drawn) [Compound 130, (1-(2-((3R,4aR,6aS,7R,10bR)-3-(3,4-difluorophenyl)-6a,10b-dimethyl-8-methylenedecahydro-1H-naphtho[2,1-d][1,3]dioxin-7-yl)ethyl)piperidin-4-yl)methanol] | < 30%
7 | C=C1CCC2[C@]3(C)CO[C@@H](C4CCCC4)O[C@@H]3CC[C@@]2(C)[C@@H]1CCN1CCC[C@H]1C(=O)OC (some centres unmarked) [Compound 147] | < 30%
8 | C=C1CCC2[C@]3(C)CO[C@@H](C4CCCC4)O[C@@H]3CC[C@@]2(C)[C@@H]1CCN1CC[C@H](NC(C)=O)C1 (stereo partly drawn) [Compound 149, N-((3 S)-1-(2-((3R,4aR,6aS,7R,10bR)-3-cyclopentyl-6a,10b-dimethyl-8-methylenedecahydro-1H-naphtho[2,1-d][1,3]dioxain-7-yl)ethyl)pyrrolidin-3-yl)acetamide] | 30 to 60%
9 | C=C1CCC2[C@]3(C)CO[C@@H](C4CCCC4)O[C@@H]3CC[C@@]2(C)[C@@H]1CCN1CCC(N(CC)CC)CC1 (stereo partly drawn) [Compound 150, 1-(2-((4aR,6aS,7R,10bR)-3-cyclopentyl-6a,10b-dimethyl-8-methylene-decahydro-1H-naphtho[2,1-d][1,3]dioxin-7-yl)ethyl)-N,N-diethylpiperidin-4-amine] | 30 to 60%
10 | C=C1CCC2[C@]3(C)CO[C@@H](C4CCCC4)O[C@@H]3CC[C@@]2(C)[C@@H]1CCN1CCC(N2CCCC2)CC1 (stereo partly drawn) [Compound 160, 1-(2-((3R,4aR,6aS,7R,10bR)-3-cyclopentyl-6a,10b-dimethyl-8-methylene-decahydro-1H-naphtho[2,1-d][1,3]dioxin-7-yl)ethyl)-4-(pyrrolidin-1-yl)piperidine] | > 60%
11 | C=C1CCC2[C@]3(C)CO[C@@H](C4CCCC4)O[C@@H]3CC[C@@]2(C)[C@@H]1CCN1CCCC1C(=O)O (stereo partly drawn) [Compound 163, 1-(2-((3R,4aR,6aS,7R,10bR)-3-cyclopentyl-6a,10b-dimethyl-8-methylenedecahydro-1H-naphtho[2,1-d][1,3]dioxin-7-yl)ethyl)pyrrolidine-2-carboxylic acid] | > 60%
12 | C=C1CCC2[C@]3(C)CO[C@@H](C4CCCC4)O[C@@H]3CC[C@@]2(C)[C@@H]1CCN1CCC2(CCN(C)CC2)C1 (some centres unmarked) [Compound 181] | < 30%
13 | C=C1CCC2[C@]3(C)CO[C@@H](C4CCCC4)O[C@@H]3CC[C@@]2(C)[C@@H]1CCN(CCO)CCO (stereo partly drawn) [Compound 191, 3-((2-((3R,4aR,6aS,7R,10bR)-3-cyclopentyl-6a,10b-dimethyl-8-methylene-decahydro-1H-naphtho[2,1-d][1,3]dioxin-7-yl)ethyl)amino)N,N-diethanolamine] | < 30%
14 | C=C1CCC2[C@]3(C)CO[C@@H](C4CCCC4)O[C@@H]3CC[C@@]2(C)[C@@H]1CCN1CCOC1=O (stereo partly drawn) [Compound 196, 3-(2-((3R,4aR,6aS,7R,10bR)-3-cyclopentyl-6a,10b-dimethyl-8-decahydromethylene-1H-naphtho[2,1-d][1,3]dioxin-7-yl)ethyl)oxazolidin-2-one] | 30 to 60%
15 | C=C1CCC2[C@]3(C)CO[C@@H](C4CCCC4)O[C@@H]3CC[C@@]2(C)[C@@H]1CCNc1cnoc1 (stereo partly drawn) [Compound 207, N-(2-((3R,4aR,6aS,7R,10bR)-3-cyclopentyl-6a,10b-dimethyl-8-decahydromethylene-1H-naphtho[2,1-d][1,3]dioxin-7-yl)ethyl)isoxazol-4-amine] | 30 to 60%
16 | C=C1CCC2[C@]3(C)CO[C@@H](c4ccc(F)c(F)c4)O[C@@H]3CC[C@@]2(C)[C@@H]1CCN1CCN(C)C1=O (stereo partly drawn) [Compound 212, 3-(2-((3R,4aR,6aS,7R,10bR)-3-(3,4-difluorophenyl)-6a,10b-dimethyl-8-decahydromethylene-1H-naphtho[2,1-d][1,3]dioxin-7-yl)ethyl)-1-methyltetrahydroimidazol-2-one] | > 60%
17 | C=C1CCC2[C@]3(C)CO[C@@H](c4ccc(F)c(F)c4)O[C@@H]3CC[C@@]2(C)[C@@H]1CCN1C(=O)CCC1=O (stereo partly drawn) [Compound 214, 1-(2-((3R,4aR,6aS,7R,10bR)-3-(3,4-difluorophenyl)-6a, 10b-dimethyl-8-methylenedecahydro-1H-naphtho[2,1-d][1,3]dioxin-7-yl)ethyl)pyrrolidine-2,5-dione] | > 60%
18 | C=C1CCC2[C@]3(C)CO[C@@H](c4ccc(F)c(F)c4)O[C@@H]3CC[C@@]2(C)[C@@H]1CCN1C(=O)COC1=O (stereo partly drawn) [Compound 215, 3-(2-((3R,4aR,6aS,7R,10bR)-3-(3,4-difluorophenyl)-6a, 10b-dimethyl-8-methylenedecahydro-1H-naphtho[2,1-d][1,3]dioxin-7-yl)ethyl)oxazolidine-2,4-dione] | < 30%
19 | C=C1CCC2[C@]3(C)CO[C@@H](c4ccc(F)c(F)c4)O[C@@H]3CC[C@@]2(C)[C@@H]1CCN1C(=O)CNC1=O (stereo partly drawn) [Compound 230, 3-(2-((3R,4aR,6aS,7R,10bR)-3-(3,4-difluorophenyl)-6a,10b-dimethyl-8-methylenedecahydro-1H-naphtho[2,1-d][1,3]dioxin-7-yl)ethyl)tetrahydroimidazole-2,4-dione] | > 60%
20 | C=C1CCC2[C@]3(C)CO[C@@H](C4CCCC4)O[C@@H]3CC[C@@]2(C)[C@@H]1CCN1CCC(C(=O)O)CC1 (stereo partly drawn) [Compound 256, 1-(2-((3R,4aR,6aS,7R,10bR)-3-cyclopentyl-6a,10b-dimethyl-8-methylene-decahydro-1H-naphtho[2,1-d][1,3]dioxin-7-yl)ethyl)piperidin-4-carboxylic acid] | < 30%
21 | C=C1CCC2[C@](C)(CO)[C@H](O)CC[C@@]2(C)[C@@H]1CCN1CCC(CO)CC1 (some centres unmarked) [Compound 265] | < 30%
22 | C=C1CCC2[C@]3(C)CO[C@@H](C4CCCC4)O[C@@H]3CC[C@@]2(C)[C@@H]1CCOCCCN(C)C (stereo partly drawn) [Compound 281, 3-(2-((3R,4aR,6aS,7R,10bR)-3-cyclopentyl-6a,10b-dimethyl-8-dihydromethylenedecahydro-1H-naphtho[2,1-d][1,3]dioxin-7-yl)ethoxy)-N,N-dimethylpropan-1-amine] | 30 to 60%
23 | C=C1CCC2[C@]3(C)CO[C@@H](C4CCCC4)O[C@@H]3CC[C@@]2(C)[C@@H]1CCN(CCO)CCCN(C)C (stereo partly drawn) [Compound 284, 2-((2-((3R,4aR,6aS,7R,10bR)-3-cyclopentyl-6a, 10b-dimethyl-8-methylene-decahydro-1H-naphtho[2,1-d][1,3]dioxin-7-yl)ethyl)(3-(dimethylamino)propyl)amino)ethanol] | 30 to 60%
24 | C=C1CCC2[C@]3(C)CO[C@@H](C4CCCC4)O[C@@H]3CC[C@@]2(C)[C@@H]1CCOc1cnn(C)c1 (stereo partly drawn) [Compound 289, 4-(2-((3R,4aR,6aS,7R,10bR)-3-cyclopentyl-6a,10b-dimethyl-8-dihydromethylenedecahydro-1H-naphtho[2,1-d][1,3]dioxin-7-yl)ethoxy)-2-methyl-1H-pyrazole] | > 60%
25 | C=C1CCC2[C@]3(C)CO[C@@H](C4CCCC4)O[C@@H]3CC[C@@]2(C)[C@@H]1CCOc1ccncc1 (stereo partly drawn) [Compound 297, 4-(2-((3R,4aR,6aS,7R,10bR)-3-cyclopentyl-6a,10b-dimethyl-8-dihydromethylenedecahydro-1H-naphtho[2,1-d][1,3]dioxin-7-yl)ethoxy)pyridine] | > 60%
26 | C=C1CCC2[C@]3(C)CO[C@@H](C4CCCC4)O[C@@H]3CC[C@@]2(C)[C@@H]1CCOc1cccnc1 (stereo partly drawn) [Compound 310, 3-(2-((3R,4aR,6aS,7R,10bR)-3-cyclopentyl-6a,10b-dimethyl-8-dihydromethylenedecahydro-1H-naphtho[2,1-d][1,3]dioxin-7-yl)ethoxy)-pyridine] | > 60%
